Experimental data reported in PubChem BioAssay AID248 (DTP/NCI, 2004).
Inconclusive results and toxic doses are left out. Cut-off read from the data, not from the text of the source: active = T/C of 150% or more; inactive = T/C below 125%.

Test system: L1210 leukemia ip in BDF1 mice, survival T/C
Assay: NCI In Vivo Anticancer Drug Screen. Data for tumor model L1210 Leukemia (intraperitoneal) in B6D2F1 (BDF1) mice
Conditions: endpoint: mean survival time, higher = longer survival
In short: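 Mice bearing the transplanted tumor received compound or vehicle. Survival of the treated group was divided by that of the vehicle-treated control group to give the ratio.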

[1] = dose: 100.0 mg/kg/injection, schedule: Q01DX009 (ip), vehicle: saline
[2] = dose: 200.0 mg/kg/injection, schedule: Q01DX009 (ip), vehicle: saline
[3] = dose: 100.0 mg/kg/injection, schedule: Q01DX009 (ip), vehicle: Klucel (hydroxypropylcellulose) (HPC)
[4] = dose: 200.0 mg/kg/injection, schedule: Q01DX009 (ip), vehicle: Klucel (hydroxypropylcellulose) (HPC)
[5] = dose: 400.0 mg/kg/injection, schedule: Q01DX009 (ip), vehicle: Klucel (hydroxypropylcellulose) (HPC)
[6] = dose: 100.0 mg/kg/injection, schedule: Q04DX003 (ip), vehicle: saline
[7] = dose: 200.0 mg/kg/injection, schedule: Q04DX003 (ip), vehicle: saline
[8] = dose: 400.0 mg/kg/injection, schedule: Q01DX009 (ip), vehicle: saline
[9] = dose: 100.0 mg/kg/injection, schedule: Q01DX001 (ip), vehicle: saline
[10] = dose: 200.0 mg/kg/injection, schedule: Q01DX001 (ip), vehicle: saline
[11] = dose: 400.0 mg/kg/injection, schedule: Q01DX001 (ip), vehicle: saline

Measured: T/C

Clc1ccccc1Nc1nnnc2ccccc12
inactive: dose: 50.0 mg/kg/injection, schedule: Q01DX009 (ip), vehicle: saline 91 % of control | [1] 95 % of control | dose: 100.0 mg/kg/injection, schedule: Q04DX003 (ip), vehicle: acetone 96 % of control | [2] 90 % of control | dose: 200.0 mg/kg/injection, schedule: Q04DX003 (ip), vehicle: acetone 100 % of control | dose: 400.0 mg/kg/injection, schedule: Q04DX003 (ip), vehicle: acetone 98 % of control

CCCCCCOc1ccc(C=Nc2ccc(C(=O)OCC)cc2)cc1
inactive: dose: 50.0 mg/kg/injection, schedule: Q01DX009 (ip), vehicle: Klucel (hydroxypropylcellulose) (HPC) 96 % of control | [3] 97 % of control | [4] 97 % of control

Cc1ccc(C2CCCCC2OS(C)(=O)=O)cc1 (configuration not stated)
inactive: dose: 100.0 mg/kg/injection, schedule: Q01DX001 (ip), vehicle: carboxymethylcellulose (CMC) 95 % of control | dose: 200.0 mg/kg/injection, schedule: Q01DX001 (ip), vehicle: carboxymethylcellulose (CMC) 92 % of control | dose: 400.0 mg/kg/injection, schedule: Q01DX001 (ip), vehicle: carboxymethylcellulose (CMC) 97 % of control

Cc1cc(S(=O)(=O)F)ccc1NC(=O)/C=C/c1ccc([N+](=O)[O-])cc1
inactive: [3] 97 % of control | [5] 92 % of control

NC(CCl)=NCC1C2CC3CC(C2)CC1C3 (configuration not stated)
inactive: dose: 10.0 mg/kg/injection, schedule: Q01DX009 (ip), vehicle: saline 101 % of control | dose: 10.0 mg/kg/injection, schedule: Q04DX002 (ip), vehicle: saline 121 % of control | dose: 20.0 mg/kg/injection, schedule: Q01DX009 (ip), vehicle: saline 116 % of control | dose: 20.0 mg/kg/injection, schedule: Q04DX002 (ip), vehicle: saline 110 % of control | dose: 40.0 mg/kg/injection, schedule: Q04DX002 (ip), vehicle: saline 110 % of control

O=C1C(O)=C(Cl)C(=O)C(OC2=C(Cl)C(=O)C(OC3=C(Cl)C(=O)C(OC4=C(Cl)C(=O)C(Cl)=C(Cl)C4=O)=C(Cl)C3=O)=C(Cl)C2=O)=C1Cl
inactive: [6] 97 % of control | [7] 105 % of control

Brc1ccc2c(ccn2Cc2ccccc2)c1
inactive: dose: 100.0 mg/kg/injection, schedule: Q04DX003 (sc), vehicle: olive oil, sesame oil, peanut oil 109 % of control | dose: 200.0 mg/kg/injection, schedule: Q04DX003 (sc), vehicle: olive oil, sesame oil, peanut oil 106 % of control | dose: 400.0 mg/kg/injection, schedule: Q04DX003 (sc), vehicle: olive oil, sesame oil, peanut oil 104 % of control

O=C(N/N=C/c1ccccc1)c1ccccc1
inactive: [1] 102 % of control | dose: 100.0 mg/kg/injection, schedule: Q04DX003 (ip), vehicle: alcohol 98 % of control | [2] 104 % of control | dose: 200.0 mg/kg/injection, schedule: Q04DX003 (ip), vehicle: alcohol 95 % of control | [8] 96 % of control | dose: 400.0 mg/kg/injection, schedule: Q04DX003 (ip), vehicle: alcohol 90 % of control

COc1ccc(COC(=O)NC2CCCCC2)cc1OC
inactive: dose: 65.0 mg/kg/injection, schedule: Q01DX009 (ip), vehicle: saline 93 % of control | [1] 93 % of control | [6] 112 % of control | dose: 150.0 mg/kg/injection, schedule: Q01DX009 (ip), vehicle: saline 101 % of control | [2] 104 % of control | [7] 118 % of control | [8] 102 % of control | dose: 400.0 mg/kg/injection, schedule: Q04DX003 (ip), vehicle: saline 102 % of control

[O-]c1on[n+](-c2ccccc2)c1-c1ccccc1
inactive: dose: 75.0 mg/kg/injection, schedule: Q01DX009 (ip), vehicle: Klucel (hydroxypropylcellulose) (HPC) 93 % of control | dose: 75.0 mg/kg/injection, schedule: Q04DX003 (ip), vehicle: Klucel (hydroxypropylcellulose) (HPC) 109 % of control | dose: 150.0 mg/kg/injection, schedule: Q01DX009 (ip), vehicle: Klucel (hydroxypropylcellulose) (HPC) 97 % of control | dose: 150.0 mg/kg/injection, schedule: Q04DX003 (ip), vehicle: Klucel (hydroxypropylcellulose) (HPC) 105 % of control | dose: 300.0 mg/kg/injection, schedule: Q01DX009 (ip), vehicle: Klucel (hydroxypropylcellulose) (HPC) 95 % of control | dose: 300.0 mg/kg/injection, schedule: Q04DX003 (ip), vehicle: Klucel (hydroxypropylcellulose) (HPC) 107 % of control

O=C(O)COc1cccc([N+](=O)[O-])c1
inactive: [3] 96 % of control | [4] 98 % of control | [5] 94 % of control

O=C(COc1ccc(Cl)c(Cl)c1)Nc1ccc[n+](Cc2c(Cl)cccc2S(=O)(=O)F)c1
inactive: [9] 88 % of control | [10] 101 % of control

CNc1ccccn1
inactive: dose: 75.0 mg/kg/injection, schedule: Q01DX001 (ip), vehicle: carboxymethylcellulose (CMC) 95 % of control | dose: 150.0 mg/kg/injection, schedule: Q01DX001 (ip), vehicle: carboxymethylcellulose (CMC) 97 % of control | dose: 300.0 mg/kg/injection, schedule: Q01DX001 (ip), vehicle: carboxymethylcellulose (CMC) 101 % of control

CC(=O)OC1C2CC3C(C2)C31 (configuration not stated)
inactive: dose: 50.0 mg/kg/injection, schedule: Q01DX009 (ip), vehicle: saline with Tween-80 105 % of control | dose: 100.0 mg/kg/injection, schedule: Q01DX009 (ip), vehicle: saline with Tween-80 97 % of control | dose: 200.0 mg/kg/injection, schedule: Q01DX009 (ip), vehicle: saline with Tween-80 94 % of control

N#Cc1cn(-c2ccc(Cl)cc2)c2ncccc12
inactive: dose: 25.0 mg/kg/injection, schedule: Q01DX001 (ip), vehicle: saline 100 % of control | dose: 50.0 mg/kg/injection, schedule: Q01DX001 (ip), vehicle: saline 100 % of control | dose: 100.0 mg/kg/injection, schedule: Q01DX001 (ip), vehicle: saline with Tween-80 88 % of control | [9] 100 % of control | [10] 87 % of control | [11] 102 % of control

CCN(c1ccccc1)C1CCCCC1=O (configuration not stated)
inactive: [9] 101 % of control | [10] 106 % of control | [11] 104 % of control

CCCCCOCC
inactive: [9] 103 % of control | [1] 96 % of control | [10] 105 % of control | [2] 101 % of control | [11] 103 % of control | [8] 101 % of control

COc1ccc(C2OCC(CCl)O2)cc1 (configuration not stated)
inactive: dose: 55.0 mg/kg/injection, schedule: Q01DX Z (ip), vehicle: methylcellulose (MC) 109 % of control | dose: 83.0 mg/kg/injection, schedule: Q01DX Z (ip), vehicle: methylcellulose (MC) 103 % of control | dose: 125.0 mg/kg/injection, schedule: Q01DX Z (ip), vehicle: methylcellulose (MC) 101 % of control

Cc1cccc2c(N=Nc3ccccc3[N+](=O)[O-])c(O)[nH]c12
inactive: [9] 101 % of control | [11] 97 % of control

CCn1nnnc1-c1ccc(Cl)cc1
inactive: dose: 100.0 mg/kg/injection, schedule: Q04DX003 (ip), vehicle: saline with Tween-80 98 % of control | dose: 200.0 mg/kg/injection, schedule: Q04DX003 (ip), vehicle: saline with Tween-80 98 % of control | dose: 400.0 mg/kg/injection, schedule: Q04DX003 (ip), vehicle: saline with Tween-80 98 % of control

CC1=CC23C(COC(=O)C24CO4)C(C(=O)O)=CC3C1C (configuration not stated)
inactive: dose: 10.0 mg/kg/injection, schedule: Q01DX001 (ip), vehicle: saline 96 % of control

C[N+]1(C)N=C(c2ccccc2)C=C1[O-]
inactive: dose: 100.0 mg/kg/injection, schedule: Q04DX002 (ip), vehicle: other 111 % of control | dose: 200.0 mg/kg/injection, schedule: Q04DX002 (ip), vehicle: other 106 % of control | dose: 400.0 mg/kg/injection, schedule: Q04DX002 (ip), vehicle: other 100 % of control
